Measured values taken from patent US8530404B2, “Compounds and methods for treatment of cancer” (FibroGen, Inc., priority 2005, dated 2013).

What was measured:
[1] = test system: HCT116-GFP colon tumors; assay: Orthotopically implanted human HCT116-GFP colon tumor mouse xenograft (Example 4); format: in vivo
Protocol: Procedures were carried out as described above for Example 3, except that the tumors of GFP-transfected H-460 cells were replaced with HCT116-GFP colon tumors, and surgical orthotopic implantation was directly into colon tissue.
The HCT116 tumor model used here is a well-characterized representative colon xenograft model. The isolation of the human HCT116 tumor cell line from a human colon carcinoma has been described. (Brattain et al (1981) Cancer Res 41:1751-1756.) To aid in the detection of tumors and metastases, HCT116 cells were transduced with genes directing the expression of fluorescent proteins (e.g., HCT116-GFP). The use of fluorescent HCT116-derived tumors in similar studies has been described previously. (Ross et al (2000) Nat Genet 24:227-235.)
HCT116-GFP tumor fragments harvested from the stock animals were transplanted into animals by surgical orthotopic implantation (SOI) as follows. The animals were anesthetized with isoflurane and the surgical area was sterilized using iodine and alcohol. After proper exposure of the colon following a lower midline abdominal incision, the serosa of the colon was removed and two pieces of 1 mm^3 tumor fragments per mouse were implanted. An 8-0 surgical suture was used to penetrate these small tumor pieces and suture them on the wall of the intestine. The intestine was then returned to the abdominal cavity. The incision in the abdominal wall was closed with a 6-0 surgical suture in one layer. The animals were kept under isoflurane anesthesia during surgery. All procedures of the operation described above were performed under a 7× magnification microscope (Olympus). Animals were kept in a barrier facility under HEPA filtration.
Administration of Compound A or 5-FU (5-Flurouracil) to the animals was initiated three days following tumor transplantation. 5-FU, a chemotherapeutic agent used as a positive control, was administered by intraperitoneal injection (60 mg/kg) at four day intervals for a total of three doses. Compound A was administered at either 20 mg/kg or 60 mg/kg three times per week. Tumor volumes were measured at day 15, day 22, and day 29.

[2] = test system: OVCAR3 ovarian tumors; assay: Subcutaneous OVCAR3 ovarian tumor xenograft in SCID mice (Example 7); format: in vivo, mouse; conditions: 60 mg/kg; study end (day 29); FIG. 2
Protocol: The experiment was conducted essentially as described above in Example 3, except that the tumors of GFP-transfected H460 cells were replaced with OVCAR3 ovarian tumors. […] FIG. 2 is a Kruskal-Wallis box plot. The central bar within each box indicates the median value for the group, the limits of the various boxes and whiskers indicate group quartiles within the total distribution of values determined in this study.

[3] = Complete blood counts and reticulocyte analysis in H-460 xenograft mice (Example 1); format: in vivo, mouse; conditions: study end
Protocol: Sizes of the primary tumors were measured through the skin with calipers once per week. Tumor volumes were calculated by the formula V═(W^2*L)/2. Body weight of the mice in each group was also measured once per week during the experimental period. All animals were sacrificed following thirty-two days of treatment. Primary tumors were excised and weighed on an electronic balance. Blood samples were taken during terminal sacrifice and placed in microhematocrit tubes containing EDTA. Complete Blood Counts (CBC) and reticulocyte analysis were performed with the Cell Dyn 3700 analyzer (Abbott Diagnostics), as described by the manufacturer.

[4] = test system: BNIP3L gene expression; assay: BNIP3L gene expression in Kelly neuroblastoma cells (Affymetrix microarray); format: cell-based; conditions: 20 μM, 6 hours, vs 0.5% DMSO control
Protocol: (§1) To identify compounds useful in the methods of the present invention, the following studies were performed. The effect of compounds of the present invention on expression of various genes associated with anti-tumor activity (e.g., genes having anti-proliferative activity, genes having pro-apoptotic activity, genes having anti-tumor activity, etc.). In these experiments, the effect of compounds on BNIP3, BNIP3L, NDRG1, CDKN1C, and REDD1/RTP801 gene expression in various types of cultured tumor cells line was examined, including Hep3B cells (human hepatocellular carcinoma), Kelly neuroblastoma cells, and MCF7 cells (human breast cancer)
(§2) The effects of various compounds of the present invention on the expression of genes associated with tumor growth and progression were examined in Kelly neuroblastoma cells as follows. Kelly neuroblastoma cells were grown in RPMI media. […]
(§3) RNA was isolated from the Kelly neuroblastoma cells using a commercial kit and used for the preparation of cDNA. BNIP3, CDKN1C, and 18S RNA levels were measured using commercial kits (18S, Applied Biosystems cat#4319413E); BNIP3, Applied Biosystems cat#HS00969293 MH). […] Kelly cell NDRG1 and BNIP3L mRNA levels were measured by Affymetrix microarray in a separate study. […]

[5] = test system: NDRG1 gene expression; assay: NDRG1 gene expression in Kelly neuroblastoma cells (Affymetrix microarray); format: cell-based; conditions: 20 μM, 6 hours, vs 0.5% DMSO control
Protocol: as §1, §2, §3

[6] = test system: REDD1/RTP801 gene expression; assay: REDD1/RTP801 gene expression in Kelly neuroblastoma cells; format: cell-based; conditions: 20 μM, vs DMSO control
Protocol: as §1, §2, §3

Compound: O=C(O)CNC(=O)c1nc(Cl)c2ccccc2c1O [Compound A, [(1-Chloro-4-hydroxy-isoquinoline-3-carbonyl)-amino]-acetic acid]
- mean tumor volume (calipers, mean +/- SD) ([1]; Treatment Day 15, 20 mg/kg three times per week): 39 +/− 27
- mean tumor volume (calipers, mean +/- SD) ([1]; Treatment Day 15, 60 mg/kg three times per week): 24 +/− 23
- mean tumor volume (calipers, mean +/- SD) ([1]; Treatment Day 22, 20 mg/kg three times per week): 67 +/− 49
- mean tumor volume (calipers, mean +/- SD) ([1]; Treatment Day 22, 60 mg/kg three times per week): 45 +/− 38
- mean tumor volume (calipers, mean +/- SD) ([1]; Treatment Day 29, 20 mg/kg three times per week): 197 +/− 158
- mean tumor volume (calipers, mean +/- SD) ([1]; Treatment Day 29, 60 mg/kg three times per week): 152 +/− 125
- reduction of median tumor volume compared to vehicle-treated control [2]: 26%

Compound: C[C@H](NC(=O)c1ncc2cc(Oc3ccccc3)ccc2c1O)C(=O)O [Compound B, (S)-2-[(4-Hydroxy-7-phenoxy-isoquinoline-3-carbonyl)-amino]-propionic acid]
- Abs Retic (reticulocyte count) ([3]; 6 mg/kg PO): 653
- Baso % ([3]; 6 mg/kg PO): 6.35%
- Baso (basophils) ([3]; 6 mg/kg PO): 1840 µL⁻¹
- EOS % ([3]; 6 mg/kg PO): 0.49%
- Eos (eosinophil count) ([3]; 6 mg/kg PO): 80 µL⁻¹
- HCT (hematocrit) ([3]; 6 mg/kg PO): 37.7%
- HGB (hemoglobin) ([3]; 6 mg/kg PO): 12.7 g/dL
- IRF (immature RET fraction) ([3]; 6 mg/kg PO): 0.64
- Lymph % ([3]; 6 mg/kg PO): 18.3%
- Lymph (lymphocytes) ([3]; 6 mg/kg PO): 4700 µL⁻¹
- MCH (mean corpuscular hemoglobin) ([3]; 6 mg/kg PO): 14.6 pg
- MCHC (MCH concentration) ([3]; 6 mg/kg PO): 33.8 g/dL
- MCV (mean corpuscular volume) ([3]; 6 mg/kg PO): 43.2 fL
- Mono % ([3]; 6 mg/kg PO): 7.61%
- Mono (monocytes) ([3]; 6 mg/kg PO): 2370 µL⁻¹
- Neut % ([3]; 6 mg/kg PO): 67.5%
- Neut (neutrophils) ([3]; 6 mg/kg PO): 18400 µL⁻¹
- PLAT (platelets) ([3]; 6 mg/kg PO): 1.536e+06 µL⁻¹
- RBC (red blood cells) ([3]; 6 mg/kg PO): 8.71e+06 µL⁻¹
- RDW (RBC distribution width) ([3]; 6 mg/kg PO): 21.4%
- RET (reticulocytes) ([3]; 6 mg/kg PO): 7.5%
- WBC (white blood cells) ([3]; 6 mg/kg PO): 27300 µL⁻¹
- Abs Retic (reticulocyte count) ([3]; 20 mg/kg PO): 552
- Baso % ([3]; 20 mg/kg PO): 4.52%
- Baso (basophils) ([3]; 20 mg/kg PO): 780 µL⁻¹
- EOS % ([3]; 20 mg/kg PO): 0.44%
- Eos (eosinophil count) ([3]; 20 mg/kg PO): 70 µL⁻¹
- HCT (hematocrit) ([3]; 20 mg/kg PO): 37.7%
- HGB (hemoglobin) ([3]; 20 mg/kg PO): 12.7 g/dL
- IRF (immature RET fraction) ([3]; 20 mg/kg PO): 0.56
- Lymph % ([3]; 20 mg/kg PO): 14.6%
- Lymph (lymphocytes) ([3]; 20 mg/kg PO): 2700 µL⁻¹
- MCH (mean corpuscular hemoglobin) ([3]; 20 mg/kg PO): 14.5 pg
- MCHC (MCH concentration) ([3]; 20 mg/kg PO): 33.7 g/dL
- MCV (mean corpuscular volume) ([3]; 20 mg/kg PO): 43.0 fL
- Mono % ([3]; 20 mg/kg PO): 4.88%
- Mono (monocytes) ([3]; 20 mg/kg PO): 850 µL⁻¹
- Neut % ([3]; 20 mg/kg PO): 75.6%
- Neut (neutrophils) ([3]; 20 mg/kg PO): 16500 µL⁻¹
- PLAT (platelets) ([3]; 20 mg/kg PO): 1.767e+06 µL⁻¹
- RBC (red blood cells) ([3]; 20 mg/kg PO): 8.78e+06 µL⁻¹
- RDW (RBC distribution width) ([3]; 20 mg/kg PO): 21.7%
- RET (reticulocytes) ([3]; 20 mg/kg PO): 6.3%
- WBC (white blood cells) ([3]; 20 mg/kg PO): 20800 µL⁻¹

Compound: COc1ccc(Oc2ccc3c(O)c(C(=O)NCC(=O)O)ncc3c2)cc1 [Compound C, {[4-Hydroxy-7-(4-methoxy-phenoxy)-isoquinoline-3-carbonyl]-amino}-acetic acid]
- Abs Retic (reticulocyte count) ([3]; 20 mg/kg PO): 457
- Baso % ([3]; 20 mg/kg PO): 1.47%
- Baso (basophils) ([3]; 20 mg/kg PO): 150 µL⁻¹
- EOS % ([3]; 20 mg/kg PO): 0.47%
- Eos (eosinophil count) ([3]; 20 mg/kg PO): 40 µL⁻¹
- HCT (hematocrit) ([3]; 20 mg/kg PO): 41.1%
- HGB (hemoglobin) ([3]; 20 mg/kg PO): 14.0 g/dL
- IRF (immature RET fraction) ([3]; 20 mg/kg PO): 0.56
- Lymph % ([3]; 20 mg/kg PO): 25.2%
- Lymph (lymphocytes) ([3]; 20 mg/kg PO): 3000 µL⁻¹
- MCH (mean corpuscular hemoglobin) ([3]; 20 mg/kg PO): 14.9 pg
- MCHC (MCH concentration) ([3]; 20 mg/kg PO): 34.1 g/dL
- MCV (mean corpuscular volume) ([3]; 20 mg/kg PO): 43.8 fL
- Mono % ([3]; 20 mg/kg PO): 2.67%
- Mono (monocytes) ([3]; 20 mg/kg PO): 320 µL⁻¹
- Neut % ([3]; 20 mg/kg PO): 70.2%
- Neut (neutrophils) ([3]; 20 mg/kg PO): 11400 µL⁻¹
- PLAT (platelets) ([3]; 20 mg/kg PO): 1.707e+06 µL⁻¹
- RBC (red blood cells) ([3]; 20 mg/kg PO): 9.36e+06 µL⁻¹
- RDW (RBC distribution width) ([3]; 20 mg/kg PO): 22.3%
- RET (reticulocytes) ([3]; 20 mg/kg PO): 4.9%
- WBC (white blood cells) ([3]; 20 mg/kg PO): 14900 µL⁻¹
- fold-increase in BNIP3L mRNA expression [4]: 5.9 fold
- fold-increase in NDRG1 mRNA expression [5]: 7.3 fold
- fold-increase in REDD1/RTP801 mRNA expression [6]: 3.6 fold

Compound: Cc1nc(C(=O)NCC(=O)O)c(O)c2ccc(Oc3ccccc3)cc12 [Compound D, [(4-Hydroxy-1-methyl-7-phenoxy-isoquinoline-3-carbonyl)-amino]-acetic acid]
- reduction of median tumor volume compared to vehicle-treated control [2]: 5%
